From ChEMBL document CHEMBL3217732, “Inhibition of Pseudomonas aeruginosa biofilms with a glycopeptide dendrimer containing D-amino acids” (Medchemcomm, 2011)
Calls of active or inactive are those of the source. The rule behind the calls is not given here. Where a SMILES comes first, the peptide text is derived from it. Bridges are numbered along the chain shown (N, C = ends). Roman numbers before positions name the chains, in order. Side-chain parts run from the residue outwards. The star is where a group is joined. Acetyl(C-α-L-Fucp) = C[C@@H]1O[C@@H](CC(=O)*)[C@@H](O)[C@H](O)[C@@H]1O

What was measured:
[1] = Stability of the compound in 100 mM of tris buffer at pH 7.5 after 30 mins in presence of chymotrypsin; assay type: ADME; conditions: isolated protein, pH 7.5, 0.5 h
[2] = Binding affinity to Pseudomonas aeruginosa lectin LecB after 1 hr by enzyme-linked lectin assay
[3] = Stability of the compound in 100 mM of tris buffer at pH 7.5 after 30 mins in presence of trypsin; assay type: ADME; conditions: isolated protein, pH 7.5, 0.5 h
[4] = Half life in human serum; assay type: ADME, cell-free
Pseudomonas aeruginosa [5] = assay: Ratio of L-fucose IC50 to compound IC50 for Pseudomonas aeruginosa lectin LecB after 1 hr by enzyme-linked lectin assay
Pseudomonas aeruginosa [6] = assay: Inhibition of Pseudomonas aeruginosa clinical isolate A021 biofilm formation at 0.05 mM after 24 hrs using acridine orange staining by steel coupon assay; assay type: functional, organism-based
[7] = Stability of the compound in 100 mM of tris buffer at pH 7.5 after 48 hrs in presence of trypsin; assay type: ADME; conditions: isolated protein, pH 7.5, 48 h
Pseudomonas aeruginosa [8] = assay: Inhibition of wild type Pseudomonas aeruginosa PAO1 biofilm formation at 0.05 mM after 24 hrs using acridine orange staining by steel coupon assay; assay type: functional, organism-based
[9] = Stability of the compound in 100 mM of tris buffer at pH 7.5 after 48 hrs in presence of chymotrypsin; assay type: ADME; conditions: isolated protein, pH 7.5, 48 h
Pseudomonas aeruginosa [10] = assay: Inhibition of Pseudomonas aeruginosa clinical isolate A014 biofilm formation at 0.05 mM after 24 hrs using acridine orange staining by steel coupon assay; assay type: functional, organism-based
Pseudomonas aeruginosa [11] = assay: Ratio of FD2 IC50 to compound IC50 for Pseudomonas aeruginosa lectin LecB after 1 hr by enzyme-linked lectin assay
Serum = assay: Metabolic stability in human serum; assay type: ADME, cell-free
Pseudomonas aeruginosa [12] = assay: Inhibition of Pseudomonas aeruginosa clinical isolate A035 biofilm formation at 0.05 mM after 24 hrs using acridine orange staining by steel coupon assay; assay type: functional, organism-based

Stability [1]	IC50 [2] [nM]	Stability [3]	half-life [4] [h]	Ratio IC50 (Pseudomonas aeruginosa [5])	Stability [7]	Stability [9]	Ratio IC50 (Pseudomonas aeruginosa [11])	Stability (Serum)	SMILES	inhibition (Pseudomonas aeruginosa [6])	inhibition (Pseudomonas aeruginosa [8])	inhibition (Pseudomonas aeruginosa [10])	inhibition (Pseudomonas aeruginosa [12])
Unstable	140	Unstable	60	78.6					CC[C@H](C)[C@H](NC(=O)[C@H](Cc1cnc[nH]1)NC(=O)[C@H](CCCCNC(=O)[C@@H](NC(=O)[C@H](CCCCN)NC(=O)[C@H](Cc1ccccc1)NC(=O)[C@H](CCCCNC(=O)[C@H](CC(C)C)NC(=O)[C@@H]1CCCN1C(=O)[C@H](CCCCN)NC(=O)C[C@@H]1O[C@@H](C)[C@@H](O)[C@@H](O)[C@@H]1O)NC(=O)[C@H](CC(C)C)NC(=O)[C@@H]1CCCN1C(=O)[C@H](CCCCN)NC(=O)C[C@@H]1O[C@@H](C)[C@@H](O)[C@@H](O)[C@@H]1O)[C@@H](C)CC)NC(=O)[C@@H](NC(=O)[C@H](CCCCN)NC(=O)[C@H](Cc1ccccc1)NC(=O)[C@H](CCCCNC(=O)[C@H](CC(C)C)NC(=O)[C@@H]1CCCN1C(=O)[C@H](CCCCN)NC(=O)C[C@@H]1O[C@@H](C)[C@@H](O)[C@@H](O)[C@@H]1O)NC(=O)[C@H](CC(C)C)NC(=O)[C@@H]1CCCN1C(=O)[C@H](CCCCN)NC(=O)C[C@@H]1O[C@@H](C)[C@@H](O)[C@@H](O)[C@@H]1O)[C@@H](C)CC)C(N)=O (I: {Acetyl(C-α-L-Fucp)}-KPLK([Leu-Pro-Lys-Acetyl(C-α-L-Fucp)])FKIKHI-NH2 / II: {Acetyl(C-α-L-Fucp)}-KPLK([Leu-Pro-Lys-Acetyl(C-α-L-Fucp)])FKI; amide I:8-II:C)				
	660			16.7	Stable	Stable	4.7	Stable	CC(C)C[C@@H](NC(=O)[C@@H](Cc1cnc[nH]1)NC(=O)[C@@H](CCCCNC(=O)[C@@H](CC(C)C)NC(=O)[C@@H](CCCCN)NC(=O)[C@@H](Cc1ccccc1)NC(=O)[C@@H](CCCCNC(=O)[C@@H](CC(C)C)NC(=O)[C@H]1CCCN1C(=O)[C@@H](CCCCN)NC(=O)C[C@@H]1O[C@@H](C)[C@@H](O)[C@@H](O)[C@@H]1O)NC(=O)[C@@H](CC(C)C)NC(=O)[C@H]1CCCN1C(=O)[C@@H](CCCCN)NC(=O)C[C@@H]1O[C@@H](C)[C@@H](O)[C@@H](O)[C@@H]1O)NC(=O)[C@@H](CC(C)C)NC(=O)[C@@H](CCCCN)NC(=O)[C@@H](Cc1ccccc1)NC(=O)[C@@H](CCCCNC(=O)[C@@H](CC(C)C)NC(=O)[C@H]1CCCN1C(=O)[C@@H](CCCCN)NC(=O)C[C@@H]1O[C@@H](C)[C@@H](O)[C@@H](O)[C@@H]1O)NC(=O)[C@@H](CC(C)C)NC(=O)[C@H]1CCCN1C(=O)[C@@H](CCCCN)NC(=O)C[C@@H]1O[C@@H](C)[C@@H](O)[C@@H](O)[C@@H]1O)C(N)=O	Active	Active	Active	Active
	11000			1					C[C@H](O)[C@@H](O)[C@@H](O)[C@H](O)C=O [L-FUCOSE]				
	150			73.3					CC(C)C[C@H](NC(=O)[C@H](Cc1cnc[nH]1)NC(=O)[C@H](CCCCNC(=O)[C@H](CC(C)C)NC(=O)[C@H](CCCCN)NC(=O)[C@H](Cc1ccccc1)NC(=O)[C@H](CCCCNC(=O)[C@H](CC(C)C)NC(=O)[C@@H]1CCCN1C(=O)[C@H](CCCCN)NC(=O)C[C@@H]1O[C@@H](C)[C@@H](O)[C@@H](O)[C@@H]1O)NC(=O)[C@H](CC(C)C)NC(=O)[C@@H]1CCCN1C(=O)[C@H](CCCCN)NC(=O)C[C@@H]1O[C@@H](C)[C@@H](O)[C@@H](O)[C@@H]1O)NC(=O)[C@H](CC(C)C)NC(=O)[C@H](CCCCN)NC(=O)[C@H](Cc1ccccc1)NC(=O)[C@H](CCCCNC(=O)[C@H](CC(C)C)NC(=O)[C@@H]1CCCN1C(=O)[C@H](CCCCN)NC(=O)C[C@@H]1O[C@@H](C)[C@@H](O)[C@@H](O)[C@@H]1O)NC(=O)[C@H](CC(C)C)NC(=O)[C@@H]1CCCN1C(=O)[C@H](CCCCN)NC(=O)C[C@@H]1O[C@@H](C)[C@@H](O)[C@@H](O)[C@@H]1O)C(N)=O				
